This passage reports inhibition and CPE inhibition rate results from patent publication US20230210848A1, “CORONAVIRUS INFECTION THERAPEUTIC AGENT FORMED THROUGH COMBINATION OF PYRAZINE DERIVATIVE AND ANOTHER CORONAVIRUS INFECTION THERAPEUTIC DRUG” (priority 2020, published 2023).

For the assay, the system named is HCoV-OC43. The experiment in a line: Test Example 2: CPE inhibition in HCoV-OC43 infected BHK-21 cells, single or combination use. The assay is classed as cell-based, Human coronavirus (HCoV-OC43).
Setting [1] is: Betacoronavirus 1, OC43, BHK-21, read-out: CPE inhibition rate.

By inhibition is commonly meant the share of the control response that was lost under treatment. As to `CCC(CC)COC(=O)[C@H](C)N[P@](=O)(OC[C@H]1O[C@@](C#N)(c2ccc3c(N)ncnn23)[C@H](O)[C@@H]1O)Oc1ccccc1` [remdesivir], under setting [1], the inhibition at 0.1 µM is 51% and the inhibition at 0.3 µM amounted to 80%.

In the case of `NC(=O)c1nc(F)cnc1O` [T-705, favipiravir], the CPE inhibition rate (single use of 1000 μM of T-705, BHK-21 cells) was determined as 79%.
